Like-named read-outs stand apart in the source and are kept apart here.
Columns and labels:
HCT116 = experiment: cells; format: cell-based, human; details: for potency relative to vinblastine (more potent): vinblastine-sensitive cell lines
Outline: (§1)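 Compound exposure ran 72 h at six concentrations (0–1000 nM or 0–10000 nM, duplicate) on cells plated at 30,000 cells/mL in 10% FBS DMEM. A closing 37 °C incubation took 15 min (HCT116) or 5 min (L1210).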

HCT116/VM46 = experiment: cells; format: cell-based, human
Protocol: Compounds were tested for their cell growth inhibition of L1210 (ATCC no. CCL-219, mouse lymphocytic leukemia), HCT116 (ATCC no. CCL-247, human colorectal carcinoma), and HCT116/VM46 (a vinblastine-resistant strain of HCT116) cells in culture. A population of cells (>1×10^6 cells/mL as determined with a hemocytometer) was diluted with Dulbecco's Modified Eagle Medium (DMEM, Gibco) containing 10% fetal bovine serum (FBS, Gibco) to give a final concentration of 30,000 cells/mL. To each well of a 96-well plate (Corning® Costar®) was added 100 μL of the cell media solution with a multichannel pipet. The cultures were incubated at 37° C. in an atmosphere of 5% CO2 and 95% humidified air for 24 hours.
The test compounds were then added to the plate as follows: test compounds were diluted in DMSO to a concentration of 1 mM. 10-Fold serial dilutions in DMSO were next performed on a separate 96-well plate. Fresh culture media (100 μL) was added to each well of cells resulting in 200 μL of medium per well followed by 2 μL of each test agent. Compounds were tested in duplicate (n=2-8 times) at six concentrations between 0-1000 nM or 0-10000 nM. Following the addition of compound, cultures were incubated for an additional 72 hours.
The plates were incubated at 37° C. for 5 minutes (L1210) or 15 min (HCT116 and HCT116/VM46). After the given incubation time, 50 μL of 0.1 N NaOH was added to each well and the absorption at 405 nm was determined using a 96 well plate reader. […]

L1210 = experiment: cells; format: cell-based, mouse
Outline: as §1

Tubulin = details: FIG. 2; competitive ligand 18 μM
Protocol: Control studies were performed with BODIPY-VBL in the absence of a competitive ligand (control 1, maximum FI enhancement) and in the absence of tubulin (control 2, no FI enhancement). Percent (%) BODIPY-VBL displacement was calculated by the formula: (control 1 FI−experiment FI)/(Control 1 FI−Control 2 FI)×100%. Reported values are the average of 5 measurements±SD.

[1] = table in Background, C20′ substituent X, read-out: IC50, HCT116
[2] = table in Background, C20′ substituent X, read-out: IC50, HCT116/VM46
[3] = Table 5, read-out: IC50 HCT116/VM46

CC[C@]1(N=[N+]=[N-])C[C@H]2CN(CCc3c([nH]c4ccccc34)[C@@](C(=O)OC)(c3cc4c(cc3OC)N(C)[C@H]3[C@@](O)(C(=O)OC)[C@H](OC(C)=O)[C@]5(CC)C=CCN6CC[C@]43[C@@H]65)C2)C1 [Compound 5, 20′-azidovinblastine]
IC50 (HCT116; [1]): 690 nM | IC50 (HCT116/VM46; [2]): 5500 nM

CCC1(NC(=O)c2cn(C)cn2)CC2CN(CCc3c([nH]c4ccccc34)C(C(=O)OC)(c3cc4c(cc3OC)N(C)C3C(O)(C(=O)OC)C(OC(C)=O)C5(CC)C=CCN6CCC43C65)C2)C1 (centres unmarked) [Compound 142]
IC50 (HCT116; Table 5, read-out: IC50 HCT116): 50 nM | IC50 (HCT116/VM46; [3]): > 1000 nM | IC50 (L1210; Table 5): 80 nM

CCC1(NC(=O)C2CCNCC2)CC2CN(CCc3c([nH]c4ccccc34)C(C(=O)OC)(c3cc4c(cc3OC)N(C)C3C(O)(C(=O)OC)C(OC(C)=O)C5(CC)C=CCN6CCC43C65)C2)C1 (centres unmarked) [Compound 146]
IC50 (HCT116; Table 5, read-out: IC50 HCT116): > 10000 nM | IC50 (HCT116/VM46; [3]): > 10000 nM | IC50 (L1210; Table 5): 4200 nM

CCC1C[C@H]2CN(CCc3c([nH]c4ccccc34)[C@@](C(=O)OC)(c3cc4c(cc3OC)N(C)[C@H]3[C@@](O)(C(=O)OC)[C@H](OC(C)=O)[C@]5(CC)C=CCN6CC[C@]43[C@@H]65)C2)C1 (some centres unmarked) [Compound 4, reference compound]
IC50 (HCT116; [1]): 60 nM | IC50 (HCT116/VM46; [2]): 600 nM

CC[C@]1(NC(=O)C2CCCC2)C[C@H]2CN(CCc3c([nH]c4ccccc34)[C@@](C(=O)OC)(c3cc4c(cc3OC)N(C)[C@H]3[C@@](O)(C(=O)OC)[C@H](OC(C)=O)[C@]5(CC)C=CCN6CC[C@]43[C@@H]65)C2)C1 [Compound 19]
IC50 (HCT116; Table 1, read-out: IC50 HCT116): 25 nM | IC50 (L1210; Table 1): 30 nM

CCC1(NC(=O)c2ccccc2OC)CC2CN(CCc3c([nH]c4ccccc34)C(C(=O)OC)(c3cc4c(cc3OC)N(C)C3C(O)(C(=O)OC)C(OC(C)=O)C5(CC)C=CCN6CCC43C65)C2)C1 (centres unmarked) [Compound 69]
IC50 (HCT116; Table 2, read-out: IC50 HCT116): 10 nM | IC50 (L1210; Table 2): 30 nM

CCC1(NC(=O)c2ccc3c(c2)CCC3)CC2CN(CCc3c([nH]c4ccccc34)C(C(=O)OC)(c3cc4c(cc3OC)N(C)C3C(O)(C(=O)OC)C(OC(C)=O)C5(CC)C=CCN6CCC43C65)C2)C1 (centres unmarked) [Compound 124]
IC50 (HCT116; Table 4, read-out: IC50 HCT116): 5.6 nM | potency relative to vinblastine (more potent) (HCT116): about 2 fold | IC50 (L1210; Table 4): 5 nM

CC[C@]1(NC(=O)c2ccc(OC)c(Cl)c2)C[C@H]2CN(CCc3c([nH]c4ccccc34)[C@@](C(=O)OC)(c3cc4c(cc3OC)N(C)[C@H]3[C@@](O)(C(=O)OC)[C@H](OC(C)=O)[C@]5(CC)C=CCN6CC[C@]43[C@@H]65)C2)C1 [Compound 92]
IC50 (HCT116; Table 2, read-out: IC50 HCT116): 5.1 nM | IC50 (L1210; Table 2): 3.7 nM

CCC1(NC(=O)c2cccnc2)CC2CN(CCc3c([nH]c4ccccc34)C(C(=O)OC)(c3cc4c(cc3OC)N(C)C3C(O)(C(=O)OC)C(OC(C)=O)C5(CC)C=CCN6CCC43C65)C2)C1 (centres unmarked) [Compound 129]
IC50 (HCT116; Table 5, read-out: IC50 HCT116): 0.6 nM | IC50 (L1210; Table 5): 0.7 nM

CCC1(NC(=O)c2ccccc2)CC2CN(CCc3c([nH]c4ccccc34)C(C(=O)OC)(c3cc4c(cc3OC)N(C)C3C(O)(C(=O)OC)C(OC(C)=O)C5(CC)C=CCN6CCC43C65)C2)C1 (centres unmarked) [Compound 24]
potency relative to saturated cyclohexyl counterpart Compound 20 (more potent) (HCT116): > 50 fold | IC50 (HCT116; Table 2, read-out: IC50 HCT116): 0.8 nM | potency relative to vinblastine (more potent) (HCT116): > 5 fold | IC50 (L1210; Table 2): 1.1 nM | percent (%) displacement of tubulin-bound BODIPY-vinblastine (Tubulin): 72±4%
